Laboratory results: patent US9695155B2, “Herbicidal substituted pyrimidinyloxy benzene compounds” (E. I. DU PONT DE NEMOURS AND COMPANY, priority 2013, dated 2017)

How the values were obtained:
[1] = tested on: Italian ryegrass; experiment: Test C postemergence; assay type: in vivo, Lolium multiflorum; conditions: for Plant response rating (0 to 100), Ryegrass, Italian: 0 is no effect, 100 is complete control; for Ryegrass, Italian plant response rating: 31 g ai/ha; for Ryegrass, Italian plant response rating / Plant response rating, Ryegrass, Italian: scale 0 to 100 (0 no effect, 100 complete control)
Procedure, shortened: (§1)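 Whole-plant greenhouse test with surfactant-containing solvent formulation, applied preemergence to sown loam–sand pots or postemergence to 2–18 cm plants. Scored by eye 13 to 15 days on, 0–100 scale.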

[2] = tested on: pigweed; experiment: Test A preemergence; assay type: in vivo, Amaranthus retroflexus
Procedure, shortened: (§2)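 Visual injury scored 0–100 (100 = complete control) against untreated controls about 10 days after treatment in a greenhouse. Test chemicals, formulated with surfactant in non-phytotoxic solvent, were sprayed on soil preemergence or on 2-10 cm, one- to two-leaf plants postemergence.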

[3] = tested on: barnyardgrass; experiment: Test C postemergence; assay type: in vivo, Echinochloa crus-galli; conditions: for Plant response rating (0 to 100), Barnyardgrass: 0 is no effect, 100 is complete control; for Barnyardgrass plant response rating: 31 g ai/ha; for Barnyardgrass plant response rating / Plant response rating, Barnyardgrass: scale 0 to 100 (0 no effect, 100 complete control)
Procedure, shortened: as §1

[4] = tested on: johnsongrass; experiment: Test C postemergence; assay type: in vivo, Sorghum halepense; conditions: for Plant response rating (0 to 100), Johnsongrass: 0 is no effect, 100 is complete control; for Johnsongrass plant response rating: 31 g ai/ha; for Johnsongrass plant response rating / Plant response rating, Johnsongrass: scale 0 to 100 (0 no effect, 100 complete control)
Procedure, shortened: as §1

[5] = tested on: wild oat; experiment: Test C postemergence; assay type: in vivo, Avena fatua; conditions: for Plant response rating (0 to 100), Oat, Wild: 0 is no effect, 100 is complete control; for Oat, Wild plant response rating: 31 g ai/ha; for Oat, Wild plant response rating / Plant response rating, Oat, Wild: scale 0 to 100 (0 no effect, 100 complete control)
Procedure, shortened: as §1

[6] = tested on: pigweed; experiment: Test C postemergence; assay type: in vivo, Amaranthus retroflexus; conditions: for Plant response rating (0 to 100), Pigweed: 0 is no effect, 100 is complete control; for Pigweed plant response rating: 31 g ai/ha; for Pigweed plant response rating / Plant response rating, Pigweed: scale 0 to 100 (0 no effect, 100 complete control)
Procedure, shortened: as §1

[7] = tested on: corn; experiment: Test C postemergence; assay type: in vivo, Zea mays; conditions: for Plant response rating (0 to 100), Corn: 0 is no effect, 100 is complete control; for Corn plant response rating: 31 g ai/ha; for Corn plant response rating / Plant response rating, Corn: scale 0 to 100 (0 no effect, 100 complete control)
Procedure, shortened: as §1

[8] = tested on: pigweed; experiment: Test A postemergence; assay type: in vivo, Amaranthus retroflexus
Procedure, shortened: as §2

[9] = tested on: soybean; experiment: Test C postemergence; assay type: in vivo, Glycine max; conditions: for Plant response rating (0 to 100), Soybean: 0 is no effect, 100 is complete control; for Soybean plant response rating: 31 g ai/ha; for Soybean plant response rating / Plant response rating, Soybean: scale 0 to 100 (0 no effect, 100 complete control)
Procedure, shortened: as §1

[10] = tested on: kochia; experiment: Test C postemergence; assay type: in vivo, Kochia scoparia; conditions: for Plant response rating (0 to 100), Kochia: 0 is no effect, 100 is complete control; for Kochia plant response rating: 31 g ai/ha; for Kochia plant response rating / Plant response rating, Kochia: scale 0 to 100 (0 no effect, 100 complete control)
Procedure, shortened: as §1

[11] = tested on: giant foxtail; experiment: Test C postemergence; assay type: in vivo, Setaria faberii; conditions: for Plant response rating (0 to 100), Foxtail, Giant: 0 is no effect, 100 is complete control; for Foxtail, Giant plant response rating: 31 g ai/ha; for Foxtail, Giant plant response rating / Plant response rating, Foxtail, Giant: scale 0 to 100 (0 no effect, 100 complete control)
Procedure, shortened: as §1

[12] = tested on: corn; experiment: Test A postemergence; assay type: in vivo, Zea mays
Procedure, shortened: as §2

[13] = tested on: waterhemp; experiment: Test C postemergence; assay type: in vivo, Amaranthus rudis; conditions: for Plant response rating (0 to 100), Waterhemp: 0 is no effect, 100 is complete control; for Waterhemp plant response rating: 31 g ai/ha; for Waterhemp plant response rating / Plant response rating, Waterhemp: scale 0 to 100 (0 no effect, 100 complete control)
Procedure, shortened: as §1

[14] = postemergence, visual rating, 13 to 15 days
[15] = 125 g ai/ha, postemergence, visual rating
[16] = Postemergence, 62 g ai/ha, 13 to 15 days
[17] = 500 g ai/ha, 0 to 100 scale where 0 is no effect and 100 is complete control
[18] = 125 g ai/ha, 0 to 100 scale, 0 no effect, 100 complete control
[19] = 31 g ai/ha, 0 to 100 scale where 0 is no effect and 100 is complete control, visual, approximately 10 days
[20] = 125 g ai/ha, 0 to 100 scale where 0 is no effect and 100 is complete control
[21] = 31 g ai/ha, 0 to 100 scale, 0 no effect, 100 complete control

SMILES: N#Cc1cn(-c2c(C#N)cccc2Oc2ncc(Cl)cn2)nn1 [Compound 273]
- Plant response rating (0 to 100), Ryegrass, Italian ([1]; 16 g ai/ha, postemergence): 5
- Ryegrass, Italian plant response rating [1, 14]: 5
- Plant response rating, Ryegrass, Italian [1, 15]: 10
- Plant response rating, Ryegrass, Italian [1, 16]: 5
- Pigweed plant response rating (0 to 100 scale) ([2]; 125 g ai/ha): 100
- Pigweed plant response rating [2, 17]: 100
- Plant response rating (0 to 100), Barnyardgrass ([3]; 16 g ai/ha, postemergence): 5
- Barnyardgrass plant response rating [3, 14]: 5
- Plant response rating, Barnyardgrass [3, 15]: 10
- Plant response rating, Barnyardgrass [3, 16]: 5
- Plant response rating (0 to 100), Johnsongrass ([4]; 16 g ai/ha, postemergence): 0
- Johnsongrass plant response rating [4, 14]: 0
- Plant response rating, Johnsongrass [4, 15]: 5
- Plant response rating, Johnsongrass [4, 16]: 5
- Plant response rating (0 to 100), Oat, Wild ([5]; 16 g ai/ha, postemergence): 5
- Oat, Wild plant response rating [5, 14]: 5
- Plant response rating, Oat, Wild [5, 15]: 10
- Plant response rating, Oat, Wild [5, 16]: 5
- Plant response rating (0 to 100), Pigweed ([6]; 16 g ai/ha, postemergence): 65
- Pigweed plant response rating [6, 14]: 80
- Plant response rating, Pigweed [6, 15]: 90
- Plant response rating, Pigweed [6, 16]: 65
- Plant response rating (0 to 100), Corn ([7]; 16 g ai/ha, postemergence): 5
- Corn plant response rating [7, 14]: 5
- Plant response rating, Corn [7, 15]: 5
- Plant response rating, Corn [7, 16]: 5
- Plant response rating, Pigweed [8, 18]: 100
- Plant response rating, Pigweed [8, 17]: 100
- Plant response rating (0 to 100), Soybean ([9]; 16 g ai/ha, postemergence): 60
- Soybean plant response rating [9, 14]: 70
- Plant response rating, Soybean [9, 15]: 90
- Plant response rating, Soybean [9, 16]: 90
- Plant response rating (0 to 100), Kochia ([10]; 16 g ai/ha, postemergence): 70
- Kochia plant response rating [10, 14]: 65
- Plant response rating, Kochia [10, 15]: 95
- Plant response rating, Kochia [10, 16]: 80
- Plant response rating (0 to 100), Foxtail, Giant ([11]; 16 g ai/ha, postemergence): 10
- Foxtail, Giant plant response rating [11, 14]: 40
- Plant response rating, Foxtail, Giant [11, 15]: 20
- Plant response rating, Foxtail, Giant [11, 16]: 10
- Plant response rating, Corn [12, 18]: 40
- Plant response rating, Corn [12, 17]: 50
- Plant response rating (0 to 100), Waterhemp ([13]; 16 g ai/ha, postemergence): 35
- Waterhemp plant response rating [13, 14]: 40
- Plant response rating, Waterhemp [13, 15]: 80
- Plant response rating, Waterhemp [13, 16]: 65

SMILES: FCc1cccc(Oc2ncc(F)cn2)c1-n1cc(I)cn1 [Compound 152]
- Plant response rating (0 to 100), Ryegrass, Italian ([1]; 8 g ai/ha, postemergence): 0
- Plant response rating (0 to 100), Ryegrass, Italian ([1]; 16 g ai/ha, postemergence): 0
- Ryegrass, Italian plant response rating [1, 14]: 0
- Plant response rating, Pigweed [2, 19]: 90
- Plant response rating, Pigweed [2, 20]: 90
- Plant response rating (0 to 100), Barnyardgrass ([3]; 4 g ai/ha, postemergence): 0
- Plant response rating (0 to 100), Barnyardgrass ([3]; 8 g ai/ha, postemergence): 0
- Plant response rating (0 to 100), Barnyardgrass ([3]; 16 g ai/ha, postemergence): 5
- Barnyardgrass plant response rating [3, 14]: 5
- Plant response rating (0 to 100), Johnsongrass ([4]; 8 g ai/ha, postemergence): 0
- Plant response rating (0 to 100), Johnsongrass ([4]; 16 g ai/ha, postemergence): 5
- Johnsongrass plant response rating [4, 14]: 5
- Plant response rating (0 to 100), Oat, Wild ([5]; 8 g ai/ha, postemergence): 0
- Plant response rating (0 to 100), Oat, Wild ([5]; 16 g ai/ha, postemergence): 0
- Oat, Wild plant response rating [5, 14]: 5
- Plant response rating (0 to 100), Pigweed ([6]; 8 g ai/ha, postemergence): 30
- Plant response rating (0 to 100), Pigweed ([6]; 16 g ai/ha, postemergence): 50
- Pigweed plant response rating [6, 14]: 60
- Plant response rating (0 to 100), Corn ([7]; 4 g ai/ha, postemergence): 0
- Plant response rating (0 to 100), Corn ([7]; 8 g ai/ha, postemergence): 0
- Plant response rating (0 to 100), Corn ([7]; 16 g ai/ha, postemergence): 5
- Corn plant response rating [7, 14]: 5
- Plant response rating, Pigweed [8, 21]: 0
- Pigweed plant response rating [8, 20]: 90
- Plant response rating (0 to 100), Soybean ([9]; 8 g ai/ha, postemergence): 30
- Plant response rating (0 to 100), Soybean ([9]; 16 g ai/ha, postemergence): 35
- Soybean plant response rating [9, 14]: 60
- Plant response rating (0 to 100), Kochia ([10]; 8 g ai/ha, postemergence): 10
- Plant response rating (0 to 100), Kochia ([10]; 16 g ai/ha, postemergence): 15
- Kochia plant response rating [10, 14]: 40
- Plant response rating (0 to 100), Foxtail, Giant ([11]; 8 g ai/ha, postemergence): 0
- Plant response rating (0 to 100), Foxtail, Giant ([11]; 16 g ai/ha, postemergence): 5
- Foxtail, Giant plant response rating [11, 14]: 5
- Plant response rating, Corn [12, 21]: 20
- Corn plant response rating [12, 20]: 30
- Plant response rating (0 to 100), Waterhemp ([13]; 8 g ai/ha, postemergence): 15
- Plant response rating (0 to 100), Waterhemp ([13]; 16 g ai/ha, postemergence): 45
- Waterhemp plant response rating [13, 14]: 60

SMILES: FC(F)Oc1cnn(-c2c(Cl)cccc2Oc2ncc(Cl)cn2)c1 [Compound 258]
- Plant response rating (0 to 100), Ryegrass, Italian ([1]; 16 g ai/ha, postemergence): 0
- Ryegrass, Italian plant response rating [1, 14]: 0
- Plant response rating, Ryegrass, Italian [1, 15]: 30
- Plant response rating, Ryegrass, Italian [1, 16]: 0
- Plant response rating, Pigweed [2, 19]: 100
- Pigweed plant response rating (0 to 100 scale) ([2]; 125 g ai/ha): 100
- Plant response rating (0 to 100), Barnyardgrass ([3]; 16 g ai/ha, postemergence): 5
- Barnyardgrass plant response rating [3, 14]: 10
- Plant response rating, Barnyardgrass [3, 15]: 10
- Plant response rating, Barnyardgrass [3, 16]: 10
- Plant response rating (0 to 100), Johnsongrass ([4]; 16 g ai/ha, postemergence): 0
- Johnsongrass plant response rating [4, 14]: 5
- Plant response rating, Johnsongrass [4, 15]: 5
- Plant response rating, Johnsongrass [4, 16]: 5
- Plant response rating (0 to 100), Oat, Wild ([5]; 16 g ai/ha, postemergence): 5
- Oat, Wild plant response rating [5, 14]: 5
- Plant response rating, Oat, Wild [5, 15]: 15
- Plant response rating, Oat, Wild [5, 16]: 10
- Plant response rating (0 to 100), Pigweed ([6]; 16 g ai/ha, postemergence): 75
- Pigweed plant response rating [6, 14]: 85
- Plant response rating, Pigweed [6, 15]: 90
- Plant response rating, Pigweed [6, 16]: 85
- Plant response rating (0 to 100), Corn ([7]; 16 g ai/ha, postemergence): 5
- Corn plant response rating [7, 14]: 5
- Plant response rating, Corn [7, 15]: 20
- Plant response rating, Corn [7, 16]: 10
- Plant response rating, Pigweed [8, 21]: 80
- Plant response rating, Pigweed [8, 18]: 100
- Plant response rating (0 to 100), Soybean ([9]; 16 g ai/ha, postemergence): 50
- Soybean plant response rating [9, 14]: 75
- Plant response rating, Soybean [9, 15]: 95
- Plant response rating, Soybean [9, 16]: 70
- Plant response rating (0 to 100), Kochia ([10]; 16 g ai/ha, postemergence): 90
- Kochia plant response rating [10, 14]: 95
- Plant response rating, Kochia [10, 15]: 100
- Plant response rating, Kochia [10, 16]: 100
- Plant response rating (0 to 100), Foxtail, Giant ([11]; 16 g ai/ha, postemergence): 5
- Foxtail, Giant plant response rating [11, 14]: 20
- Plant response rating, Foxtail, Giant [11, 15]: 45
- Plant response rating, Foxtail, Giant [11, 16]: 25
- Plant response rating, Corn [12, 21]: 10
- Plant response rating, Corn [12, 18]: 40
- Plant response rating (0 to 100), Waterhemp ([13]; 16 g ai/ha, postemergence): 65
- Waterhemp plant response rating [13, 14]: 70
- Plant response rating, Waterhemp [13, 15]: 90
- Plant response rating, Waterhemp [13, 16]: 80
